Results published in ChEMBL document CHEMBL1649187, “New plasmid-mediated quinolone resistance gene, qnrC, found in a clinical isolate of Proteus mirabilis” (2009).
Values after ≈ are worked out from the molar mass of the structure shown.

Assays:
Assay type in all cases: functional
Escherichia coli [1] = assay: Antimicrobial activity against Escherichia coli J53 by CLSI agar dilution method
Escherichia coli [2] = assay: Antimicrobial activity against Escherichia coli J53 transconjugated with Proteus mirabilis pHS10 carrying qnrC gene by CLSI agar dilution method
Proteus mirabilis [3] = assay: Antimicrobial activity against Proteus mirabilis 06-489 isolated from infected human urinary tract by CLSI agar dilution method
Escherichia coli [4] = assay: Antimicrobial activity against Escherichia coli TOP10 harboring pHS12 carrying ATT to TTA substituted qnrC gene by CLSI agar dilution method
Escherichia coli [5] = assay: Antimicrobial activity against Escherichia coli J53 by Etest
Escherichia coli [6] = assay: Antimicrobial activity against Escherichia coli TOP10 harboring pHS12 carrying qnrC gene by CLSI agar dilution method
Escherichia coli [7] = assay: Antimicrobial activity against Escherichia coli ATCC 25922 by CLSI agar dilution method
Escherichia coli [8] = assay: Antimicrobial activity against Escherichia coli TOP10 harboring pHS12 carrying TTG to TTA substituted qnrC gene by CLSI agar dilution method
Escherichia coli [9] = assay: Antimicrobial activity against Escherichia coli TOP10 harboring pHS12 carrying ATT to ATG substituted qnrC gene by CLSI agar dilution method
Escherichia coli [10] = assay: Antimicrobial activity against Escherichia coli TOP10 harboring pHS12 carrying ATG to ACG substituted qnrC gene by CLSI agar dilution method
Escherichia coli [11] = assay: Antimicrobial activity against Escherichia coli J53 transconjugated with Proteus mirabilis pHS10 carrying qnrC gene by Etest
Proteus mirabilis [12] = assay: Antimicrobial activity against Proteus mirabilis 06-489 isolated from infected human urinary tract by Etest; details: 06-489, Urine
Escherichia coli [13] = assay: Antimicrobial activity against Escherichia coli TOP10 harboring pHS12 carrying TTG to ATG substituted qnrC gene by CLSI agar dilution method
Escherichia coli [14] = assay: Antimicrobial activity against Escherichia coli TOP10 harboring pHS12 carrying TTG to TCG substituted qnrC gene by CLSI agar dilution method

## COc1cc(Cc2cnc(N)nc2N)cc(OC)c1OC [TRIMETHOPRIM]
Escherichia coli [1]
  MIC: 0.25 µg/mL (≈ 0.861 µM)
Escherichia coli [2]
  MIC: > 128 µg/mL
Proteus mirabilis [3]; 06-489, Urine
  MIC: > 128 µg/mL

## CC(C)(O/N=C(\C(=O)N[C@@H]1C(=O)N2C(C(=O)[O-])=C(C[n+]3ccccc3)CS[C@H]12)c1csc(N)n1)C(=O)O [CEFTAZIDIME]
Escherichia coli [1]
  MIC: ≤ 0.06 µg/mL
Escherichia coli [2]
  MIC: 0.06 µg/mL (≈ 0.11 µM)
Proteus mirabilis [3]; 06-489, Urine
  MIC: ≤ 0.06 µg/mL

## CO[C@@]1(NC(=O)Cc2cccs2)C(=O)N2C(C(=O)O)=C(COC(N)=O)CS[C@@H]21 [CEFOXITIN]
Escherichia coli [1]
  MIC: 4 µg/mL (≈ 9.36 µM)
Escherichia coli [2]
  MIC: 4 µg/mL (≈ 9.36 µM)
Proteus mirabilis [3]; 06-489, Urine
  MIC: 2 µg/mL (≈ 4.68 µM)

## CO/N=C(\C(=O)N[C@@H]1C(=O)N2C(C(=O)O)=C(COC(C)=O)CS[C@H]12)c1csc(N)n1 [CEFOTAXIME]
Escherichia coli [1]
  MIC: ≤ 0.06 µg/mL
Escherichia coli [2]
  MIC: ≤ 0.06 µg/mL
Proteus mirabilis [3]; 06-489, Urine
  MIC: ≤ 0.06 µg/mL

## C[C@H]1COc2c(N3CCN(C)CC3)c(F)cc3c(=O)c(C(=O)O)cn1c23.C[C@H]1COc2c(N3CCN(C)CC3)c(F)cc3c(=O)c(C(=O)O)cn1c23.O [LEVOFLOXACIN]
Escherichia coli [4]
  MIC: 0.125 µg/mL
Escherichia coli [5]
  MIC: 0.023 µg/mL
Escherichia coli [6]
  MIC: 0.19 µg/mL
Escherichia coli [7]
  MIC: 0.006 µg/mL
Escherichia coli [8]
  MIC: 0.006 µg/mL
Escherichia coli [9]
  MIC: 0.125 µg/mL
Escherichia coli [10]
  MIC: 0.19 µg/mL
Escherichia coli [11]
  MIC: 0.25 µg/mL
Proteus mirabilis [12]
  MIC: 0.5 µg/mL
Escherichia coli [13]
  MIC: 0.19 µg/mL

## CN(C)[C@@H]1C(O)=C(C(N)=O)C(=O)[C@@]2(O)C(O)=C3C(=O)c4c(O)cccc4[C@@](C)(O)[C@H]3C[C@@H]12 [TETRACYCLINE]
Escherichia coli [1]
  MIC: 1 µg/mL (≈ 2.25 µM)
Escherichia coli [2]
  MIC: 128 µg/mL (≈ 288 µM)
Proteus mirabilis [3]; 06-489, Urine
  MIC: 128 µg/mL (≈ 288 µM)

## NCC[C@H](O)C(=O)N[C@@H]1C[C@H](N)[C@@H](O[C@H]2O[C@H](CN)[C@@H](O)[C@H](O)[C@H]2O)[C@H](O)[C@H]1O[C@H]1O[C@H](CO)[C@@H](O)[C@H](N)[C@H]1O [AMIKACIN]
Escherichia coli [1]
  MIC: 0.25 µg/mL (≈ 0.427 µM)
Escherichia coli [2]
  MIC: 0.5 µg/mL (≈ 0.854 µM)
Proteus mirabilis [3]; 06-489, Urine
  MIC: 8 µg/mL (≈ 13.7 µM)

## CO/N=C(\C(=O)N[C@@H]1C(=O)N2C(C(=O)O)=C(COC(N)=O)CS[C@H]12)c1ccco1 [CEFUROXIME]
Escherichia coli [1]
  MIC: 8 µg/mL (≈ 18.9 µM)
Escherichia coli [2]
  MIC: 8 µg/mL (≈ 18.9 µM)
Proteus mirabilis [3]; 06-489, Urine
  MIC: 4 µg/mL (≈ 9.43 µM)

## CCn1cc(C(=O)O)c(=O)c2ccc(C)nc21 [NALIDIXIC ACID]
Escherichia coli [4]
  MIC: 3 µg/mL (≈ 12.9 µM)
Escherichia coli [5]
  MIC: 4 µg/mL (≈ 17.2 µM)
Escherichia coli [14]
  MIC: 1.5 µg/mL (≈ 6.46 µM)
Escherichia coli [6]
  MIC: 4 µg/mL (≈ 17.2 µM)
Escherichia coli [7]
  MIC: 1 µg/mL (≈ 4.31 µM)
Escherichia coli [8]
  MIC: 1 µg/mL (≈ 4.31 µM)
Escherichia coli [9]
  MIC: 4 µg/mL (≈ 17.2 µM)
Escherichia coli [10]
  MIC: 4 µg/mL (≈ 17.2 µM)
Escherichia coli [11]
  MIC: 16 µg/mL (≈ 68.9 µM)
Proteus mirabilis [12]
  MIC: 16 µg/mL (≈ 68.9 µM)
Escherichia coli [13]
  MIC: 4 µg/mL (≈ 17.2 µM)

## GENTAMICIN
Escherichia coli [1]
  MIC: 0.125 µg/mL
Escherichia coli [2]
  MIC: 4 µg/mL
Proteus mirabilis [3]; Urine
  MIC: 16 µg/mL

## O=C(O)c1cn(C2CC2)c2cc(N3CCNCC3)c(F)cc2c1=O [CIPROFLOXACIN]
Proteus mirabilis [12]
  MIC: 0.25 µg/mL (≈ 0.754 µM)

## Cc1cc(NS(=O)(=O)c2ccc(N)cc2)no1 [SULFAMETHOXAZOLE]
Escherichia coli [1]
  MIC: 16 µg/mL (≈ 63.2 µM)
Escherichia coli [2]
  MIC: > 1020 µg/mL
Proteus mirabilis [3]; 06-489, Urine
  MIC: > 1020 µg/mL

## O=C(N[C@H](CO)[C@H](O)c1ccc([N+](=O)[O-])cc1)C(Cl)Cl [CHLORAMPHENICOL]
Escherichia coli [1]
  MIC: 8 µg/mL (≈ 24.8 µM)
Escherichia coli [2]
  MIC: 64 µg/mL (≈ 198 µM)
Proteus mirabilis [3]; 06-489, Urine
  MIC: 16 µg/mL (≈ 49.5 µM)

## CC1(C)S[C@@H]2[C@H](NC(=O)[C@H](N)c3ccccc3)C(=O)N2[C@H]1C(=O)O [AMPICILLIN]
Escherichia coli [1]
  MIC: 4 µg/mL (≈ 11.4 µM)
Escherichia coli [2]
  MIC: 128 µg/mL (≈ 366 µM)
Proteus mirabilis [3]; 06-489, Urine
  MIC: 64 µg/mL (≈ 183 µM)
